These results are taken from US20110318397A1, “METHOD FOR PREPARING HIGH PURITY GINSENOSIDE RD USING LACTOBACILLUS CASEI AND COSMETIC COMPOSITION FOR ANTI-WRINKLE COMPRISING THE HIGH PURITY GINSENOSIDE RD” (priority 2010, published 2011).

Where two headings read alike, the source gives them in different places.

Data set [1] has as its system Human fibroblasts (WI-38). Put plainly: Collagen synthesis, procollagen type-I C-peptide kit. Format: cell-based. To be noted: WI-38 fibroblasts, 24 h; for collagen production as compared to the control (sample-untreated cells): 1×10^−4% (w/v) or lower.
Protocol: Human fibroblasts (WI-38) that had been stored at −80° C. or in liquid nitrogen were used. The cells were uniformly placed on a 96-well plate, with 2.0×10^4 cells/well.
After culturing in MEM (FBS 5%) for 24 hours, the medium was replaced with a fresh serum-free medium and the cells were treated with gradually diluted sample. […] After treatment with the sample, the cells were further cultured for 24 hours on a 96-well plate. Then, the quantity of collagen was measured using a collagen measurement kit (Procollagen type-I C-peptide MK101, Takara).
The test system of a further data set is human fibroblasts. The procedure:
MTT [3-(4,5-dimethylthiazol-2-yl)-2,5-diphenyltetrazolium bromide, Sigma M5655] assay was carried out to test the effect of the sample on proliferation of human fibroblasts.
The fibroblasts that had been stored at −80° C. or in liquid nitrogen were used. The cells were uniformly placed on a 96-well plate, with 2.0×10^4 cells/well. After culturing in MEM (FBS 5%) for 24 hours, the medium was replaced with a fresh serum-free medium and the cells were treated with gradually diluted sample. The samples were ginsenoside Rd and retinol. After treatment with the sample, the cells were further cultured for 24 hours on a 96-well plate. Subsequently, after adding 10 μL of MTT solution (5 mg/mL) to each well, the cells were cultured for 4 hours. After removing the medium and adding 100 μL of dimethyl sulfoxide to each well followed by shaking for 10 minutes, absorbance was measured at 540 nm using an ELISA reader.

With `CC1=C(/C=C/C(C)=C/C=C/C(C)=C/CO)C(C)(C)CCC1` [Retinol, retinol, reference compound], in data set [1] (at 1×10^−2 (w/v) or lower), the maximum collagen production was 30%. Moreover, the cell viability – broadly, a read-out of living cells in per cent, often relative to untreated cells – in the data set with human fibroblasts (human, 24 h) came out at 100%.
Take `CC(C)=CCC[C@](C)(O)[C@H]1CC[C@]2(C)[C@@H]1[C@H](O)C[C@@H]1[C@@]3(C)CC[C@H](O)C(C)(C)[C@@H]3[C@@H](O[C@@H]3O[C@H](CO)[C@@H](O)[C@H](O)[C@H]3O[C@@H]3O[C@@H](C)[C@H](O)[C@@H](O)[C@H]3O)C[C@]12C` [Rg2, ginsenoside Rg2]: the “collagen production as compared to the control (sample-untreated cells)” value in data set [1] is “remarkably decreased collagen production”.
As to `CC(C)=CCC[C@](C)(O[C@@H]1O[C@H](CO)[C@@H](O)[C@H](O)[C@H]1O)[C@H]1CC[C@]2(C)[C@@H]1[C@H](O)C[C@@H]1[C@@]3(C)CC[C@H](O[C@@H]4O[C@H](CO)[C@@H](O)[C@H](O)[C@H]4O[C@@H]4O[C@H](CO)[C@@H](O)[C@H](O)[C@H]4O)C(C)(C)[C@@H]3CC[C@]12C` [ginsenoside Rd], the “collagen production as compared to the control (sample-untreated cells)” value in data set [1] is reported as “slightly decreased collagen production”. Moreover, in the data set on human fibroblasts, the cell viability is 100% and the cytotoxicity result was “no cytotoxicity”.
